Values joined by “and” are separate entries in the source; they are usually repeats but may differ in a detail not shown here. Equal values may be shown once. Marks after values point to notes of the source that are not given here.

This data set relates to male CD-1 mice. Description: 5 day chronic oral dosing toxicity study in mice (clinical signs). The following applies: for Clinical signs (observation code), Day 1, 4 hours / Clinical signs (observation code), Day 1, 24 hours / Clinical signs (observation code), Day 2, 4 hours / Clinical signs (observation code), Day 2, 24 hours / Clinical signs (observation code), Day 3, 4 hours / Clinical signs (observation code), Day 3, 24 hours / Clinical signs (observation code), Day 4, 4 hours / Clinical signs (observation code), Day 4, 24 hours / Clinical signs (observation code), Day 5, 4 hours / Clinical signs (observation code), Day 5, 24 hours: one line per animal; for Toxicity profile in comparison (compounds of formula 1 vs other GlyT1 inhibitors of similar potency): 5 day oral dosing in mice, tables 1-18. Type of data set: in vivo. Also noted: key to Clinical signs (observation code), Day 1, 24 hours / Clinical signs (observation code), Day 2, 24 hours / Clinical signs (observation code), Day 3, 24 hours / Clinical signs (observation code), Day 4, 24 hours / Clinical signs (observation code), Day 5, 24 hours / Clinical signs (observation code), Day 1, 4 hours / Clinical signs (observation code), Day 2, 4 hours / Clinical signs (observation code), Day 3, 4 hours / Clinical signs (observation code), Day 4, 4 hours / Clinical signs (observation code), Day 5, 4 hours: 0: Appeared Normal; 1: Activity (inc./dec.); 2: Sedation/Lethargy; 3: Piloerection; 4: Stereotypy; 5: Soft Stool; 6: Chromodacryorrhea; 7: Epistaxis; 8: Cyanosis; 9: Flaccidity; 10: Respiration; 11: Hunched Posture; 12: Enophthalmia; 13: Exophthalmia; 14: Palpabral Ptosis; 15: Loss of Righting; 16: Chromaturia; 17: Salivation; 18: Lacrimation; 19: Miosis; 20: Mydriasis; 21: Rigidity; 22: Ataxia; 23: Tremors; 24: Convulsions; 25: Catalepsy; 26: Lateral Recumbency; 27: Death. As for the experimental part:
This example illustrated a 5 day chronic oral dosing toxicity study with GlyT1 inhibitors. […] Behavioral observations (clinical signs) and body weights were recorded daily for all compounds tested. Male CD-1 mice were purchased from Charles River Labs (Kingston, N.Y.). The animals weighed between 20-25 grams upon arrival. Animals were acclimatized in a temperature/humidity (72° ±5° F./50%±5%) controlled vivarium, with a common 12 hour light/dark cycle (Lights on 0700 hrs) for 5 days prior to test. All animals were allowed food (Purina Labdiete® Rodent chow # 5001) and water (supplied by Elizabethtown Water Company) ad libitum during the acclimation period and throughout the study. On the day prior to test initiation animals were randomly assigned to groups: All animals chosen for test weighed at least 20 grams and appeared in good condition. Each animal was dosed once daily for 5 days. Animals remained on site for a 3 day recovery period following the chronic dosing period.
A stock concentration of each test compound was prepared fresh on the day of study initiation. Aliquots were diluted to the needed concentrations for daily dosing. Stock solutions were kept in a refrigerator when not in use. Each compound was dissolved in a small amount of distilled water. One equivalent of sodium hydroxide (2 N) may have been added to aid in dissolution of each test agent. Vehicle was then added quantum sufficiat to give the final volume. Final volumes were adjusted to reflect percent free base when appropriate. The vehicle used in this experiment was Hydroxypropyl-β-cyclodextrine (HPCD) Acros, lot 011849601, dissolved in distilled water to form a 10% weight/volume concentration. The pH was adjusted, using sodium hydroxide (2 N), to equal that of the test agents (usually between 8 to 10). All prepared test compounds were either in solution, and clear, or in suspension, and slightly cloudy. Suspensions were mixed immediately prior to use.
All animals were administered either test compound or vehicle Per Os (PO) via 21 gauge gavage needles, in volumes of 10.0 ml/kg. Daily body weights were used to determine individual dosing volumes. All test compounds were weighed on a Denver Instruments analytical balance (model # A-250). Animals were weighed on a top loading Ohaus portable balance model # LS2000.
Animals were assessed for overt behaviors (clinical signs) immediately following administration of test agents, then again at 4 and 24 hours. Animals were assessed for 27 separate clinical signs:
Toxicity data obtained through the assay as described above is provided in Tables 1 to 14 for Compounds Gi to Gxiv inclusive. The animals were observed immediately following administration and again at 4 hours and 24 hours. Observations are reported using the code number from the following chart: […]

Setting [1] is: 40 mg/kg/day PO, male CD-1 mice.

Take `COc1cccc(-c2ccc(/C(=C/CN(C)CC(=O)O)c3cscc3C)cc2)c1` [Compound G(xii), (Z)-N-(1-(4-(3-Methoxyphenyl)phenyl)-1-(3-(4-methylthienyl))prop-1-en-3-yl)sarcosine]: under setting [1], the “Clinical signs (observation code), Day 1, 4 hours” value (from here on “Clinical signs … Day 1, 4 hours”) is 0; the “Clinical signs (observation code), Day 1, 24 hours” value (“Clinical signs … Day 1, 24 hours” below) amounted to 0; the “Clinical signs (observation code), Day 2, 4 hours” value (“Clinical signs … Day 2, 4 hours” below) amounted to 0; the “Clinical signs (observation code), Day 2, 24 hours” value (from here on “Clinical signs … Day 2, 24 hours”) turned out to be 0. Besides, under setting [1], the “Clinical signs (observation code), Day 3, 4 hours” value (“Clinical signs … Day 3, 4 hours” below) was found to be 0; the “Clinical signs (observation code), Day 3, 24 hours” value (from here on “Clinical signs … Day 3, 24 hours”) stood at 0; the “Clinical signs (observation code), Day 4, 4 hours” value (shortened to “Clinical signs … Day 4, 4 hours”) turned out to be 0; the “Clinical signs (observation code), Day 4, 24 hours” value (“Clinical signs … Day 4, 24 hours” below) is listed as 0. Further, the “Clinical signs (observation code), Day 5, 4 hours” value (from here on “Clinical signs … Day 5, 4 hours”) under setting [1] is 0.

For the compound `CN(C/C=C(/c1ccc(-c2ccco2)cc1)c1ccsc1)CC(=O)O` [Compound G(iv), (Z)-N-(1-(4-(2-Furyl)phenyl)-1-(3-thienyl)prop-1-en-3-yl)sarcosine], under setting [1], the “Clinical signs … Day 1, 4 hours” value is 0 and 14; the “Clinical signs … Day 1, 24 hours” value is given as 0; the “Clinical signs … Day 2, 4 hours” value was determined as 0; the “Clinical signs … Day 2, 24 hours” value worked out at 0. In addition, under setting [1], the “Clinical signs … Day 3, 4 hours” value was 14 (2×) and 0; the “Clinical signs … Day 3, 24 hours” value turned out to be 0; the “Clinical signs … Day 4, 4 hours” value is 0; the “Clinical signs … Day 4, 24 hours” value was determined as 0. Besides, under setting [1], the “Clinical signs … Day 5, 4 hours” value was 0 (2×) and 14; the “Clinical signs (observation code), Day 5, 24 hours” value (shortened to “Clinical signs … Day 5, 24 hours”) stood at 0.

Take `CN(C/C=C(\c1ccccc1)c1ccc(-c2ccccc2)cc1)CC(=O)O` [Compound J, reference compound]: the “Toxicity profile in comparison (compounds of formula 1 vs other GlyT1 inhibitors of similar potency)” value was “higher toxicity profile”. For the setting “PO, mice”, the “Clinical signs … Day 4, 4 hours” value was determined as 0. For the same compound, for the setting “dose 10 (m↓kg) PO, mice”, the “Clinical signs … Day 1, 4 hours” value worked out at 0; the “Clinical signs … Day 2, 4 hours” value is recorded as 0; the “Clinical signs … Day 3, 4 hours” value was 0; the “Clinical signs … Day 5, 4 hours” value turned out to be 0. Besides, under “dose 25 (m↓kg) PO, mice”, the “Clinical signs … Day 1, 24 hours” value was found to be 0; the “Clinical signs … Day 2, 24 hours” value is 0 and 2.

As to `CN(C/C=C(/c1ccc(-c2cccc(OC(F)(F)F)c2)cc1)c1ccsc1)CC(=O)O` [Compound G(vii), (Z)-N-(1-(4-(3-(Trifluoromethoxy)phenyl)phenyl)-1-(3-thienyl)prop-1-en-3-yl)sarcosine], under setting [1], the “Clinical signs … Day 1, 4 hours” value was 0; the “Clinical signs … Day 1, 24 hours” value is given as 0; the “Clinical signs … Day 2, 4 hours” value stood at 0; the “Clinical signs … Day 2, 24 hours” value worked out at 0. Under setting [1], the “Clinical signs … Day 3, 4 hours” value worked out at 0; the “Clinical signs … Day 3, 24 hours” value was found to be 0; the “Clinical signs … Day 4, 4 hours” value is 0; the “Clinical signs … Day 4, 24 hours” value is 0. Under setting [1], the “Clinical signs … Day 5, 4 hours” value worked out at 0 and the “Clinical signs … Day 5, 24 hours” value worked out at 0.

As to `CC(C)c1ccc(/C(=C/CN(C)CC(=O)O)c2ccsc2)cc1` [Compound H, reference compound], the “Toxicity profile in comparison (compounds of formula 1 vs other GlyT1 inhibitors of similar potency)” value was “higher toxicity profile”.

Regarding `CN(C/C=C(/c1ccc(-c2ccsc2)cc1)c1ccsc1)CC(=O)O` [Compound G(ii), (Z)-N-(1-(4-(3-Thienyl)phenyl)-1-(3-thienyl)prop-1-en-3-yl)sarcosine], under setting [1], the “Clinical signs … Day 1, 4 hours” value amounted to 0; the “Clinical signs … Day 1, 24 hours” value is 0; the “Clinical signs … Day 2, 4 hours” value was 0 (2×) and 1; the “Clinical signs … Day 2, 24 hours” value worked out at 0. For the same compound, under setting [1], the “Clinical signs … Day 3, 4 hours” value worked out at 0; the “Clinical signs … Day 3, 24 hours” value was found to be 0; the “Clinical signs … Day 4, 4 hours” value was found to be 0; the “Clinical signs … Day 4, 24 hours” value is given as 0. Besides, under setting [1], the “Clinical signs … Day 5, 4 hours” value was 0 and 14; the “Clinical signs … Day 5, 24 hours” value came out at 0.

With `Cc1ccccc1/C(=C\CN(C)CC(=O)O)c1ccc(-c2ccsc2)cc1` [Compound G(xiv), (Z)-N-(1-(4-(3-Thienyl)phenyl)-1-(2-methylphenyl)prop-1-en-3-yl)sarcosine], under setting [1], the “Clinical signs … Day 1, 4 hours” value is recorded as 0; the “Clinical signs … Day 1, 24 hours” value is listed as 0; the “Clinical signs … Day 2, 4 hours” value stood at 0; the “Clinical signs … Day 2, 24 hours” value worked out at 0. In addition, under setting [1], the “Clinical signs … Day 3, 4 hours” value was 0; the “Clinical signs … Day 3, 24 hours” value is 0; the “Clinical signs … Day 4, 4 hours” value was 0; the “Clinical signs … Day 4, 24 hours” value came out at 0. Also, under setting [1], the “Clinical signs … Day 5, 4 hours” value turned out to be 0 and the “Clinical signs … Day 5, 24 hours” value is reported as 0.

As to `CN(C/C=C(/c1ccc(-c2cccc(C(F)(F)F)c2)cc1)c1ccc(Cl)s1)CC(=O)O` [Compound K, reference compound], the “Toxicity profile in comparison (compounds of formula 1 vs other GlyT1 inhibitors of similar potency)” value is listed as “higher toxicity profile”. Further, under setting [1], the “Clinical signs … Day 1, 4 hours” value was 1 and 0 (2×); the “Clinical signs … Day 1, 24 hours” value is given as 27*.

The values are drawn from patent US6667336B2, “GlyT-1 inhibitors” (NPS Allelix Corp., priority 2002, dated 2003).
